{
  "source": "patent US4071528A",
  "about": "“Certain thiazolidine and tetrahydrothiazine compounds” (May & Baker Limited, priority 1975, dated 1978)",
  "key": {"[1]": {"system": "Nippostrongylus brasiliensis", "assay": "Activity against roundworms in rats, A.1: treatment 6 days after infection (patent infection), post-mortem worm counts", "type": "in vivo", "conditions": "48 h, oral, 100 mg/kg, treated 6 days after infection, read-out: % Reduction of mean worm load", "protocol": "In the Tables of results \"s.c.\" means subcutaneous and the doses are expressed in mg/kg animal body weight. […] A.1. Rats were infected with 100 Nippostrongylus brasiliensis larvae each, by the subcutaneous route. After 6 days, when the infection was patent, the rats were randomised and allotted to groups of 5 animals each, ready for treatment. One group was used for each dose level of the test compound, which was administered by the oral or subcutaneous route, and in each experiment, one group of 10 animals was left untreated as a control. All the rats were killed for post-mortem worm counts 48 hours after treatment. The activities, expressed in terms of the percentage reduction in mean worm load of the treated groups compared with the untreated group, are shown in Table I."}, "[2]": {"system": "Nippostrongylus brasiliensis", "assay": "Activity against roundworms in rats, A.2: treatment 24 hours after infection, post-mortem worm counts", "type": "in vivo", "conditions": "144 h, treated 24 hours after infection, read-out: % Reduction of mean worm load", "protocol": "In the Tables of results \"s.c.\" means subcutaneous and the doses are expressed in mg/kg animal body weight. […] A.2. Rats were infected with 100 Nippostrongylus brasiliensis larvae each, by the subcutaneous route. After 24 hours the rats were randomised and allotted to groups of 5 animals each, ready for treatment. Doses of the test compound were then administered to each group by the oral or subcutaneous route, one group of 10 animals being left untreated as a control. All the rats were killed for post-mortem worm counts 6 days after dosing. The activities, expressed in terms of the percentage reduction in mean worm load of the treated groups compared with the untreated control group, are given below in Table II."}, "[3]": {"system": "Haemonchus contortus", "assay": "B.1 Activity against adult Haemonchus contortus in lambs", "type": "in vivo", "conditions": "s.c. 10 mg/kg (methanesulphonate salt), adult stage", "protocol": "(§1) B.1. Activity against Haemonchus contortus and Nematodirus spathiger in their adult stages in lambs.\n(§2) Worm-free, 8-10 week old lambs were each infected with 5000 H. contortus and 15000 N. spathiger larvae. Approximately 3 weeks later, doses of test compound A were administered to each group of 2 animals, by the subcutaneous route, one group of 2 animals being left untreated as a control.\n(§3) Individual faecal H. contortus egg counts were determined 1 day before and 5- 7 days after treatment, when all the lambs were killed for post-mortem worm counts. The activities, expressed in terms of the percentage reduction in mean worm burden of each worm species compared with the untreated control group, are given below."}, "[4]": {"system": "Nematodirus spathiger", "assay": "B.1 Activity against adult Nematodirus spathiger in lambs", "type": "in vivo", "conditions": "s.c. 10 mg/kg (methanesulphonate salt), adult stage", "protocol": "as §1, §2, §3"}, "[5]": {"system": "Haemonchus contortus", "assay": "B.2 Activity against Haemonchus contortus in 4th larval and adult stages in lambs", "type": "in vivo", "conditions": "oral 4 mg/kg", "protocol": "(§4) B.2. Activity against Haemonchus contortus, Ostertagia circumcincta, Trichostrongylus axei, Trichostrongylus colubriformis and Nematodirus spathiger in their 4th larval and adult stages in lambs.\n(§5) Worm-free, 8-10 week old lambs were each infected with 5,000 H. contortus, 15,000 O. circumcincta, 20,000 T. axei, 15,000 T. colubriformis and 15,000 N. spathiger larvae.\n(§6) Doses of test compound A of 4 mg/kg animal body weight were then administered to each group of 2 animals, by the oral route, after 7 days or 25 days to examine the effects against the 4th larval stage and mature adult worms respectively, one group of 2 animals being left untreated as a control. All the lambs were killed for post-mortem worm wounts 28 days after infection. The activities, expressed in terms of the percentage reduction in mean worm burden of each worm species compared with the untreated control group, are given below in Table III."}, "[6]": {"system": "Ostertagia circumcincta", "assay": "B.2 Activity against Ostertagia circumcincta in 4th larval and adult stages in lambs", "type": "in vivo", "conditions": "oral 4 mg/kg", "protocol": "as §4, §5, §6"}, "[7]": {"system": "Trichostrongylus axei", "assay": "B.2 Activity against Trichostrongylus axei in 4th larval and adult stages in lambs", "type": "in vivo", "conditions": "oral 4 mg/kg", "protocol": "as §4, §5, §6"}, "[8]": {"system": "Trichostrongylus colubriformis", "assay": "B.2 Activity against Trichostrongylus colubriformis in 4th larval and adult stages in lambs", "type": "in vivo", "conditions": "oral 4 mg/kg", "protocol": "as §4, §5, §6"}, "[9]": {"system": "Nematodirus spathiger", "assay": "B.2 Activity against Nematodirus spathiger in 4th larval and adult stages in lambs", "type": "in vivo", "conditions": "oral 4 mg/kg", "protocol": "as §4, §5, §6"}, "[10]": {"system": "Cooperia oncophora", "assay": "C.2 Activity against Cooperia oncophora in mature and immature stages in calves", "type": "in vivo", "conditions": "s.c. 25 mg/kg (methanesulphonate salt)", "protocol": "(§7) C.2. Activity against Cooperia oncophora, Ostertagia ostertagi, and Dictyocaulus viviparus in their mature and immature stages in calves. Worm free, 6-7 week old calves were each infected with 15,000 C. oncophora, 15,000 O. ostertagi and 3,000 D. viviparus larvae. Groups of two animals each were treated subcutaneously with test compound A at a dose of 25 mg/kg animal body weight at 7 days or 25 days after infection, one group of two animals being left untreated as a control. All calves were killed approximately 28 days after infection and were examined for residual worm burdens. The percentage reduction in mean worm burden of each worm species compared with the untreated control group is given below in Table V."}, "[11]": {"system": "Ostertagia ostertagi", "assay": "C.2 Activity against Ostertagia ostertagi in mature and immature stages in calves", "type": "in vivo", "conditions": "s.c. 25 mg/kg (methanesulphonate salt)", "protocol": "as §7"}, "[12]": {"system": "Dictyocaulus viviparus", "assay": "C.2 Activity against Dictyocaulus viviparus in mature and immature stages in calves", "type": "in vivo", "conditions": "s.c. 25 mg/kg (methanesulphonate salt)", "protocol": "as §7"}, "[13]": {"system": "Fasciola hepatica", "assay": "D. Activity against mature and immature liver flukes in sheep", "type": "in vivo", "conditions": "oral 25 mg/kg in gelatin capsules", "protocol": "D. Activity against mature and immature liver flukes in sheep On the first day of the experiment a group of sheep were each infected with 300 metacercariae of liver fluke Fasciola hepatica and on the 56th day they were each infected with a further 300 metacercariae of F. hepatica. On day 70 of the experiment, doses of the test compounds of 25 mg/kg animal body weight were administered orally in gelatin capsules to groups of two animals per compound. One group of two animals was left untreated as controls. On day 98 of the experiment, all the sheep were killed. The number of mature flukes present in the bile ducts and the numbers of immature flukes present in the rest of the liver were counted. The activities, expressed in terms of the percentage reduction in mean fluke burdens compared with the untreated controls, are shown below in Table VI."}, "[14]": {"assay": "Oral acute toxicity (LD50) in mice", "conditions": "mouse, in vivo, observed during next 6 days", "text": "Mice were each treated orally with one of the compounds of formula I, and they were observed during the next 6 days. The LD50 figures obtained (doses lethal to 50% of mice tested) are shown in Table VII, expressed in mg/kg animal body weight."}, "[15]": {"system": "Mycosphaerella pinodes", "assay": "Minimum effective concentration totally inhibiting fungal growth, Mycosphaerella pinodes, potato dextrose agar tubes", "type": "cell-based", "conditions": "Didymella pinodes, 48 h; total inhibition of fungal growth; tested at 50, 10 or 2 ppm; 25° C, 2 days", "protocol": "Test tubes containing 4.0 ml of molten potato dextrose agar at about 50° C were inoculated with 0.5 ml of suspension of test compound and 0.5 ml of fungal suspension delivered from a sterile syringe to give a final concentration of each compound of 50, 10 or 2 ppm. Two replicate tubes were inoculated with each fungal species. After the addition of test compounds and fungal inoculum to the molten medium the tubes were sloped and the agar was allowed to set. The tubes were incubated at 25° C for either 2 days (Mycosphaerella pinodes) or 3 days (Helminthosporium avenae). […] The suspensions of test compounds were prepared by grinding 0.025 g of test compound with sterile distilled water containing 0.1 ml of 0.1% Texofor FX170 wetting agent, followed by dilution to the concentration desired. The inoculum of Mycosphaerella pinodes was prepared as follows: A one to two week old culture on Coon's agar on plates was scraped off with a glass rod and sterile distilled water and filtered through muslin. The filtrate, containing the spores, was used for inoculation."}, "[16]": {"conditions": "sc, s.c. (methanesulphonate salt, aqueous)"}, "[17]": {"conditions": "treated at 7 days (4th larval stage)"}, "[18]": {"conditions": "treated at 25 days (mature adult worms)"}, "[19]": {"conditions": "treated 25 days after infection"}},
  "note": "Where two headings read alike, the source gives them in different places.",
  "data": [
    {"compound": "COC(=O)N=C1SCC(=O)N1c1ccc(Sc2ccccc2)cc1NC(=O)CN(C)C", "note": "[Compound A, 3-[2-(2-dimethylaminoacetamido)-4-phenylthiophenyl]-2-methoxycarbonyliminothiazolidin-4-one]", "values": [
      {"measurement": "inhibition in vivo at 100 mg/kg", "setting": "[1]", "value": 99, "unit": "%"},
      {"measurement": "inhibition in vivo at 12.5 mg/kg", "setting": "[2]; oral", "value": 85, "unit": "%"},
      {"measurement": "inhibition in vivo at 50 mg/kg", "setting": "[2]; oral", "value": 99, "unit": "%"},
      {"measurement": "inhibition in vivo at 12.5 mg/kg", "setting": "[2]; [16]", "value": 91, "unit": "%"},
      {"measurement": "inhibition in vivo at 50 mg/kg", "setting": "[2]; [16]", "value": 99, "unit": "%"},
      {"measurement": "reduction of the mean worm burden of H. contortus", "setting": "[3]", "value": 100, "unit": "%"},
      {"measurement": "reduction of the mean worm burden of N. spathiger", "setting": "[4]", "value": 99, "unit": "%"},
      {"measurement": "Percentage reduction in mean worm burdens, H. contortus", "setting": "[5]; [17]", "value": 100, "unit": "%"},
      {"measurement": "Percentage reduction in mean worm burdens, H. contortus", "setting": "[5]; [18]", "value": 100, "unit": "%"},
      {"measurement": "Percentage reduction in mean worm burdens, O. circumcincta", "setting": "[6]; [17]", "value": 99, "unit": "%"},
      {"measurement": "Percentage reduction in mean worm burdens, O. circumcincta", "setting": "[6]; [18]", "value": 100, "unit": "%"},
      {"measurement": "Percentage reduction in mean worm burdens, T. axei", "setting": "[7]; [17]", "value": 100, "unit": "%"},
      {"measurement": "Percentage reduction in mean worm burdens, T. axei", "setting": "[7]; [18]", "value": 100, "unit": "%"},
      {"measurement": "Percentage reduction in mean worm burdens, T. colubriformis", "setting": "[8]; [17]", "value": 100, "unit": "%"},
      {"measurement": "Percentage reduction in mean worm burdens, T. colubriformis", "setting": "[8]; [18]", "value": 100, "unit": "%"},
      {"measurement": "Percentage reduction in mean worm burdens, N. spathiger", "setting": "[9]; [17]", "value": 95, "unit": "%"},
      {"measurement": "Percentage reduction in mean worm burdens, N. spathiger", "setting": "[9]; [18]", "value": 97, "unit": "%"},
      {"measurement": "% Reduction of mean worm burdens, C. oncophora", "setting": "[10]; treated 7 days after infection", "value": 100, "unit": "%"},
      {"measurement": "% Reduction of mean worm burdens, C. oncophora", "setting": "[10]; [19]", "value": 100, "unit": "%"},
      {"measurement": "% Reduction of mean worm burdens, O. ostertagi", "setting": "[11]; treated 7 days after infection", "value": 97, "unit": "%"},
      {"measurement": "% Reduction of mean worm burdens, O. ostertagi", "setting": "[11]; [19]", "value": 100, "unit": "%"},
      {"measurement": "% Reduction of mean worm burdens, D. viviparus", "setting": "[12]; treated 7 days after infection", "value": 83, "unit": "%"},
      {"measurement": "% Reduction of mean worm burdens, D. viviparus", "setting": "[12]; [19]", "value": 82, "unit": "%"},
      {"measurement": "Mean % Reduction, Immature flukes", "setting": "[13]; immature flukes in rest of liver", "value": 29, "unit": "%"},
      {"measurement": "Mean % Reduction, Mature flukes", "setting": "[13]; mature flukes in bile ducts", "value": 93, "unit": "%"},
      {"measurement": "LD50 at 144 h", "setting": "[14]", "value": "~1000", "unit": "mg/kg"},
      {"measurement": "MIC", "setting": "[15]", "value": "< 2", "unit": "µg/mL"}
    ]}
  ]
}
